{"source": "patent US10575543B2", "about": "“Acetaldehyde precursors” (Firmenich SA, priority 2014, dated 2020)", "key": {"[1]": {"assay": "Assessment of hydrolysis rate under spray drying feed conditions (pH 8.0 buffer/limonene emulsion)", "format": "physicochemical", "conditions": "pH 8.0 phosphate buffer; for t50 at pH 8.0: precursor dissolved in limonene, emulsion, time to 50% of maximum absorbance", "experimental": "Acetaldehyde precursors suitable for rendering into dry powders must avoid releasing significant levels of acetaldehyde during various stages of processing. In particular they should resist hydrolysis during the preparation of a spray drying feed emulsion, which can be neutral to basic pH and can contain a significant volume fraction of an oil phase.\nA pH 8.0 buffer solution was prepared by adding 49.92 g disodium phosphate heptahydrate (CAS 7782-85-6) and 1.93 g monosodium phosphate (CAS 7558-80-7) to 1 L of deionised water. Aliquots of 0.20 g the Example 1-2 preparations were dissolved in 0.8 g of limonene (CAS 5989-25-7) added to 10 g of the buffer solution within a 30 mL Erlenmeyer flask containing a stir bar. The concentration of acetaldehyde in solution was monitored as a function of time using a UV/V is spectrometer probe measuring absorbance at 276 nm. Stirring was periodically stopped to allow oil droplets to rise to the surface and collect an unobscured absorbance reading of the aqueous solution. Release followed mixed zero and first order kinetics. t50 (the time to 50% of the maximum absorbance) values are reported in Table 2. […] Comparative Sample 1 has t50 of 2.1 minutes, which is so short that a person skilled in the art would consider this compound at risk of experiencing a problematic degree of hydrolysis during processing. Example 1 has a much longer t50 value and released acetaldehyde more slowly than Comparative Sample 1."}, "[2]": {"assay": "Assessment of hydrolysis rate at pH 3.0 (acetaldehyde release, UV absorbance at 276 nm)", "format": "physicochemical", "conditions": "pH 3.0 buffer", "experimental": "Instant beverage applications require rapid hydrolysis of the precursor molecules in order to rapidly release acetaldehyde. Because such beverages might be consumed immediately upon preparation, it is desired for the release to be as rapid as possible.\nA pH 3.0 buffer solution was prepared by adding 16.43 g citric acid (CAS 77-92-9) and 4.26 g disodium citrate (CAS 144-33-2) to 1 L of deionized water. Aliquots of the Example 1-2 preparations were added to the buffer solution within a Distek 2100B USP 2 dissolution system stirring at 200 rpm. The concentration of acetaldehyde in solution was monitored as a function of time using a UV/V is spectrometer probe which measured absorbance at 276 nm every 1 second. Results for comparative samples were taken from work by Gassenmeier et al.."}}}
{"smiles": "CCOC(C)OC(C)=O", "note": "(centres unmarked) [Comparative Sample 1, 1-ethoxyethyl acetate, reference compound]", "values": [{"measurement": "t50", "setting": "[1]; limonene emulsion", "result": 2.1, "unit": "min"}, {"measurement": "t50 at pH 8.0", "setting": "[1]", "result": 2.1, "unit": "min"}]}
{"smiles": "C=CC1(C)CCC(C(C)(C)OC(C)OCC)O1", "note": "(centres unmarked) [Example 1, 5-(2-(1-ethoxyethoxy)propan-2-yl)-2-methyl-2-vinyltetrahydrofuran]", "values": [{"measurement": "Rate of acetaldehyde release compared with comparative samples", "setting": "[2]", "result": "released acetaldehyde faster than Comparative Samples 2-5"}, {"measurement": "Increase in absorbance at 276 nm (release of acetaldehyde)", "setting": "[1]; limonene emulsion, over 1 hour", "result": "no measurable increase in absorbance over 1 hour"}, {"measurement": "t50 at pH 8.0", "setting": "[1]", "result": ">>1 hour"}]}
